{
  "source": "patent US9855265B2",
  "about": "“Methods for treating cancer with TrkA receptor tyrosine kinase antagonists” (VM Oncology LLC, priority 2014, dated 2018)",
  "key": {"ARAF": {"target": "ARAF (Homo sapiens, UniProt P10398)", "test": "radiometric kinase assay, other kinases: ARAF", "assay_type": "biochemical", "details": "duplicate", "procedure": "(§1) Compound inhibition in a radiometric based mixed micelle assay: In a final reaction volume of 25 μL, TrkA (h) ([…]) is incubated with the kinase reaction buffer (20 mM HEPES (pH 7.5), 10 mM MgCl2, 1 mM EGTA, 0.02% Brij 35, 0.02 mg/ml BSA, 0.1 mM Na3VO4, 2 mM DTT, 1% DMSO), 0.2 mg/ml substrate PolyEY(4:1) and […], and [^33P-ATP](specific activity approx. 500 cpm/pmol, concentration as required). The reaction is initiated by the addition of the MgATP mix. After incubation for at least 40 minutes at room temperature, the reaction is stopped by the addition of 5 μL of a 3% phosphoric acid solution. 10 μL of the reaction is then spotted onto a P30 filtermat and washed three times for 5 minutes in 75 mM phosphoric acid and once in methanol prior to drying and scintillation counting. TrkA: Recombinant Human Cytoplasmic Domain (amino acids 441-796), Histidine-tagged, expressed in insect cells. Activated in vitro via auto-phosphorylation. Mw=42.8 kDa. Substrates for kinases: poly(EY) for TRKA; poly(EY)(4:1) with 2 mM MnCl2, average Mw=16 kDa Standard conditions (unless otherwise specified): 30 nM TRKA, 0.2 mg/ml poly(EY)+2 mM MnCl2, and 10 μM ([γ-^33P]) ATP. Using the similar assay condition with other kinases of recombinant human cytoplasmic domain, the activities of other kinases could be also measured."}, "AXL": {"target": "T1, AXL (Homo sapiens, UniProt P30530)", "T1 construct": "other kinases of recombinant human cytoplasmic domain", "T1 sequence (P30530 473-894 limits assumed)": "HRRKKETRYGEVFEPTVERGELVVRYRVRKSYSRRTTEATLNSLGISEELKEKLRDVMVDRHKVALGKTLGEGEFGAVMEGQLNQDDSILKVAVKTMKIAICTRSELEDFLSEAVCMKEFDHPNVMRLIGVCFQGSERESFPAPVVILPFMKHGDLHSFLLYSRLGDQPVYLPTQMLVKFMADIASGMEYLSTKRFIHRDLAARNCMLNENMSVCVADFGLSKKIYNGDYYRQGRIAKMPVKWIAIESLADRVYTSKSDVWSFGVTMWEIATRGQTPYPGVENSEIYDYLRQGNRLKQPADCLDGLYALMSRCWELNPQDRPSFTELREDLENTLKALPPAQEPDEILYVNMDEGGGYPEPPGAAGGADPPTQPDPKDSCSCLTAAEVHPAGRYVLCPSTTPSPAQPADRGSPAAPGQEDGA", "test": "radiometric kinase assay, other kinases: AXL", "assay_type": "biochemical", "details": "duplicate", "procedure": "as §1"}, "BMX": {"target": "BMX (Homo sapiens, UniProt P51813)", "sequence (P51813 whole entry)": "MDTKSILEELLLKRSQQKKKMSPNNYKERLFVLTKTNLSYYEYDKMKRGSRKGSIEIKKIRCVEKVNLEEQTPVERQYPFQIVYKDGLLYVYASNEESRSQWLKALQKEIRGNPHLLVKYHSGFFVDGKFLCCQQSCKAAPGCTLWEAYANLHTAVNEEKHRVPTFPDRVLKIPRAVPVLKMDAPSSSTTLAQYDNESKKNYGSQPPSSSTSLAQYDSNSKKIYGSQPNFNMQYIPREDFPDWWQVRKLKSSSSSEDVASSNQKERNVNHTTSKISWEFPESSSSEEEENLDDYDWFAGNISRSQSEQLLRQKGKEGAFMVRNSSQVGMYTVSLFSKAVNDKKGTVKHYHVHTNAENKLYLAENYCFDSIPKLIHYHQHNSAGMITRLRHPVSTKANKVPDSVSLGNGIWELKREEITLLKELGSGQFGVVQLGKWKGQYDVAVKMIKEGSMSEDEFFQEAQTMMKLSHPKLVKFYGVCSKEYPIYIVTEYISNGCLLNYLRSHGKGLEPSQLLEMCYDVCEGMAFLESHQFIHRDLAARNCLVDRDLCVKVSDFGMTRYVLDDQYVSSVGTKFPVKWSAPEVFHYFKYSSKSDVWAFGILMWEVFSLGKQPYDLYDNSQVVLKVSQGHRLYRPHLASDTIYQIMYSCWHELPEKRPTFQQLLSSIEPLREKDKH", "test": "radiometric kinase assay, other kinases: BMX", "assay_type": "biochemical", "details": "duplicate", "procedure": "as §1"}, "CDK2/cyclinE": {"target": "CDK2/cyclinE (Homo sapiens, UniProt P24941)", "test": "radiometric kinase assay, other kinases: CDK2/cyclinE", "assay_type": "biochemical", "details": "duplicate", "procedure": "as §1"}, "c-MET": {"target": "T2, c-MET (Homo sapiens, UniProt P08581)", "T2 construct": "other kinases of recombinant human cytoplasmic domain", "test": "radiometric kinase assay, other kinases: c-MET", "assay_type": "biochemical", "details": "duplicate", "procedure": "as §1"}, "FES/FPS": {"target": "FES/FPS (Homo sapiens, UniProt P07332)", "test": "radiometric kinase assay, other kinases: FES/FPS", "assay_type": "biochemical", "details": "duplicate", "procedure": "as §1"}, "FGFR1": {"target": "T3, FGFR1 (Homo sapiens, UniProt P11362)", "T3 construct": "other kinases of recombinant human cytoplasmic domain", "test": "radiometric kinase assay, other kinases: FGFR1", "assay_type": "biochemical", "details": "duplicate", "procedure": "as §1"}, "FLT1": {"target": "T4, FLT1 (Homo sapiens, UniProt P17948)", "T4 construct": "other kinases of recombinant human cytoplasmic domain", "test": "radiometric kinase assay, other kinases: FLT1", "assay_type": "biochemical", "details": "duplicate", "procedure": "as §1"}, "FLT3 (CD)": {"target": "T5, FLT3 (CD) (Homo sapiens, UniProt P36888)", "T5 construct": "other kinases of recombinant human cytoplasmic domain", "test": "radiometric kinase assay, other kinases: FLT3 (CD)", "assay_type": "biochemical", "details": "duplicate", "procedure": "as §1"}, "IR": {"target": "T6, IR (Homo sapiens, UniProt P06213)", "T6 construct": "other kinases of recombinant human cytoplasmic domain", "T6 sequence (P06213 980-1382 limits assumed)": "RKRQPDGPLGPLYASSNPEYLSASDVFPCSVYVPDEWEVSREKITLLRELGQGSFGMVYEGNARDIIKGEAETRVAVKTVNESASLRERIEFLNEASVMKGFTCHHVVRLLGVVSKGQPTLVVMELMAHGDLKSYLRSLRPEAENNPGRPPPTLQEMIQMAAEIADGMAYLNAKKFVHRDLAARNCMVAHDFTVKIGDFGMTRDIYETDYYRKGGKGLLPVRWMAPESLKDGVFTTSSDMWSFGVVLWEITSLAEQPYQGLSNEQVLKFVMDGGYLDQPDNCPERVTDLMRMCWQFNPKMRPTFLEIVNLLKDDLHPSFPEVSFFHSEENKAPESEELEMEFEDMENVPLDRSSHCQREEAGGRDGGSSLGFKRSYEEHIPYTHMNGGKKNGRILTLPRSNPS", "test": "radiometric kinase assay, other kinases: IR", "assay_type": "biochemical", "details": "duplicate", "procedure": "as §1"}, "JAK3": {"target": "JAK3 (Homo sapiens, UniProt P52333)", "test": "radiometric kinase assay, other kinases: JAK3", "assay_type": "biochemical", "details": "duplicate", "procedure": "as §1"}, "LCK": {"target": "LCK (Homo sapiens, UniProt P06239)", "sequence (P06239 whole entry)": "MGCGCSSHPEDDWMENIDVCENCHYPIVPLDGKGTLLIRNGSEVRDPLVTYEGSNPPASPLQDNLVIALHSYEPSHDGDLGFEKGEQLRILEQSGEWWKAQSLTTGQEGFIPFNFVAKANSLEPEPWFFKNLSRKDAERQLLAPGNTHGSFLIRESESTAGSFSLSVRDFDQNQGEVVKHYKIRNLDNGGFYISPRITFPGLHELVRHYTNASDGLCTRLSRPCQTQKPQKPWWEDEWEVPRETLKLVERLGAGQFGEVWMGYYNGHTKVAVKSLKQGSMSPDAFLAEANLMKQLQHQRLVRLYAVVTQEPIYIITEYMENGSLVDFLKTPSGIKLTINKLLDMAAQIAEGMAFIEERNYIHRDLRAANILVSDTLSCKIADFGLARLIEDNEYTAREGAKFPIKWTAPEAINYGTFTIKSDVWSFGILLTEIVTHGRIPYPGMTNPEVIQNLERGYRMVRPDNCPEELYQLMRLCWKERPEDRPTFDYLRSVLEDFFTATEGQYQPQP", "test": "radiometric kinase assay, other kinases: LCK", "assay_type": "biochemical", "details": "duplicate", "procedure": "as §1"}, "LYN": {"target": "LYN (Homo sapiens, UniProt P07948)", "sequence (P07948 whole entry)": "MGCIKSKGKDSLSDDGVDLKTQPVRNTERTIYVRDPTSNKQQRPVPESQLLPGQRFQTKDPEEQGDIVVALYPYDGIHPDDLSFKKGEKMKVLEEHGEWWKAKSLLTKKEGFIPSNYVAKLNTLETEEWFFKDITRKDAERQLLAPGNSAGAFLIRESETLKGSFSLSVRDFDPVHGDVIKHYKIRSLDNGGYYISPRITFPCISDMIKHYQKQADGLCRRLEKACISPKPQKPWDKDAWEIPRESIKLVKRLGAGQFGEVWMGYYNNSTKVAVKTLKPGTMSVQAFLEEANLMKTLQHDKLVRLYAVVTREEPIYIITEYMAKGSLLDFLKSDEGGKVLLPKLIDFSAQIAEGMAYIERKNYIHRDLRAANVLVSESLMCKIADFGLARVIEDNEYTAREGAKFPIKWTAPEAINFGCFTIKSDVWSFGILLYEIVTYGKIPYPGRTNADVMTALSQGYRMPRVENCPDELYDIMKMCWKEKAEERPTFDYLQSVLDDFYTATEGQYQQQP", "test": "radiometric kinase assay, other kinases: LYN", "assay_type": "biochemical", "details": "duplicate", "procedure": "as §1"}, "MEK2": {"target": "MEK2 (Homo sapiens, UniProt P36507)", "sequence (P36507 whole entry)": "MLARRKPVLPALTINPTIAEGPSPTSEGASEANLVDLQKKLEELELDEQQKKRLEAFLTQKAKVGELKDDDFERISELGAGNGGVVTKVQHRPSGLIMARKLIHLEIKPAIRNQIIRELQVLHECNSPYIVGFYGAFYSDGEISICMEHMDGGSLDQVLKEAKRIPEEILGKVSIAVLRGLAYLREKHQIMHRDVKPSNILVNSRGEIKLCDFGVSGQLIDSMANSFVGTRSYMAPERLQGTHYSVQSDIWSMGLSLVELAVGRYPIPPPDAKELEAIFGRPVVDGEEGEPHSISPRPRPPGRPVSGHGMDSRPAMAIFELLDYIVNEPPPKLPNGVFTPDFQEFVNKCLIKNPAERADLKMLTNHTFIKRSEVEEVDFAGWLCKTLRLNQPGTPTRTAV", "test": "radiometric kinase assay, other kinases: MEK2", "assay_type": "biochemical", "details": "duplicate", "procedure": "as §1"}, "MLK1/MAP3K9": {"target": "MLK1/MAP3K9 (Homo sapiens, UniProt P80192)", "test": "radiometric kinase assay, other kinases: MLK1/MAP3K9", "assay_type": "biochemical", "details": "duplicate", "procedure": "as §1"}, "P38b/MAPK11": {"target": "P38b/MAPK11 (Homo sapiens, UniProt Q15759)", "test": "radiometric kinase assay, other kinases: P38b/MAPK11", "assay_type": "biochemical", "details": "duplicate", "procedure": "as §1"}, "PKCalpha": {"target": "PKCalpha (Homo sapiens, UniProt P17252)", "test": "radiometric kinase assay, other kinases: PKCalpha", "assay_type": "biochemical", "details": "duplicate", "procedure": "as §1"}, "PKCbetaII": {"target": "PKCbetaII (Homo sapiens, UniProt P05771)", "sequence (P05771 1-673 isoform P05771-2)": "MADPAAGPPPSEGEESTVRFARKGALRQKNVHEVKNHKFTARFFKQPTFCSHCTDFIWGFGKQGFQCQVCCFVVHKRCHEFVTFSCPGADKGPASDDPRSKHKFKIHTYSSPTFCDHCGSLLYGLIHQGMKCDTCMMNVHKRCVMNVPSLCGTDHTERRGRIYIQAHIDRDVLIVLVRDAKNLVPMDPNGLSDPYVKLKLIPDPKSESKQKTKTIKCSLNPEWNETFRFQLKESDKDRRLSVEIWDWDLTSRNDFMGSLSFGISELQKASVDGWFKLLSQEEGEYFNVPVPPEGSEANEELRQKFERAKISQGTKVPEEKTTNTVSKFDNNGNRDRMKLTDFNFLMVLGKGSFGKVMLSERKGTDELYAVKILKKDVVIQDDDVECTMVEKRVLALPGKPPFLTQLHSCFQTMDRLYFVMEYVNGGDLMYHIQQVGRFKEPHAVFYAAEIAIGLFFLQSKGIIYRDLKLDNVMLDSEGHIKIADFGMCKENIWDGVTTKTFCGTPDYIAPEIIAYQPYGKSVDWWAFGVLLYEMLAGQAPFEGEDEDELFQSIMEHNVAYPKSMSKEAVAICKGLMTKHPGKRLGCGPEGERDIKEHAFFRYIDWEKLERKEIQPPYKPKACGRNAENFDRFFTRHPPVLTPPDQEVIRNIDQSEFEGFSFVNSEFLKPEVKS", "test": "radiometric kinase assay, other kinases: PKCbetaII", "assay_type": "biochemical", "details": "duplicate", "procedure": "as §1"}, "PKCtheta": {"target": "PKCtheta (Homo sapiens, UniProt Q04759)", "test": "radiometric kinase assay, other kinases: PKCtheta", "assay_type": "biochemical", "details": "duplicate", "procedure": "as §1"}, "PKD2/PRKD2": {"target": "PKD2/PRKD2 (Homo sapiens, UniProt Q9BZL6)", "test": "radiometric kinase assay, other kinases: PKD2/PRKD2", "assay_type": "biochemical", "details": "duplicate", "procedure": "as §1"}, "TEC": {"target": "TEC (Homo sapiens, UniProt P42680)", "sequence (P42680 whole entry)": "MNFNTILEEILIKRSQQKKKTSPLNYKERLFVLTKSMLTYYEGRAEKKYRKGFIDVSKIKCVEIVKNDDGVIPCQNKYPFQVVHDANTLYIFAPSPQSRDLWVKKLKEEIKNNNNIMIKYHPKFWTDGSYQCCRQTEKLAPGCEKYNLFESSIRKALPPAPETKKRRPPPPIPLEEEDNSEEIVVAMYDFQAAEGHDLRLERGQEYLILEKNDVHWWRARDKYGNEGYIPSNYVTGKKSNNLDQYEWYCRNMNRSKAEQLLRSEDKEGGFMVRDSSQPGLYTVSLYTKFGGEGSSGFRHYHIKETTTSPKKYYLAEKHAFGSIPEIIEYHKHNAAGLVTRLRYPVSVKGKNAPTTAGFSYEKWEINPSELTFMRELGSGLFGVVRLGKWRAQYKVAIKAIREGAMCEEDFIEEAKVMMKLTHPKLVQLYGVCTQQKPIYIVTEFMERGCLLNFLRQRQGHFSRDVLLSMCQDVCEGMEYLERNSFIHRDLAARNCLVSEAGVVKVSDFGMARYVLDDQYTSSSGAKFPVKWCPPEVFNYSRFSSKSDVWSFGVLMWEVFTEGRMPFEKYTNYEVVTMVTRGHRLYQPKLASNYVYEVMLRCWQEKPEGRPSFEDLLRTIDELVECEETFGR", "test": "radiometric kinase assay, other kinases: TEC", "assay_type": "biochemical", "details": "duplicate", "procedure": "as §1"}, "[1]": {"target": "other more than 400 kinases", "test": "radiometric kinase assay, kinase panel", "assay_type": "biochemical, human", "details": "duplicate", "procedure": "as §1"}, "[2]": {"system": "AsPC-1 human pancreatic cancer cells", "test": "Cell Viability and Proliferation Assay, AsPC-1", "assay_type": "cell-based", "details": "ASPC1, after 24 incubation", "procedure": "(§2) Cell Viability and Proliferation Assays. To assess the chemosensitivity of tumor cells, cell viability is measured by CellTiter-Glo® Luminescent Cell Viability Assay (Promega; Wis., USA) per the manufacturer's instruction. Briefly, 5×10^3 to 7×10^5 cells/ml are cultured in sterile 96-well plates in the presence of increasing concentrations of the drugs (test article, 0 to 100 μM), or vehicle in RPMI medium. The plates are then incubated for 24 to 96 h, and then 100 μl of CellTiter-Glo reagent is added to lyse the cells. After a 10-min incubation at room temperature, the luminescence is recorded in a luminometer with an integration time of 1 s per well. The luminescence signals for the drug-treated cells are normalized by the luminescence signal obtained from vehicle-treated cells. As an alternative method to quantitate cell viability, the trypan blue exclusion dye method was used. Vehicle- or drug-treated cells were assayed by adding trypan blue solution (0.4% in phosphate-buffered saline [PBS]) to the culture medium. After 3 min, the number of dead cells that retained the dye is compared to the total number of cells to calculate cell viability. GraphPad Prism 5 software is used to calculate IC50 and plot effect-dose curve of drugs. Multiplate reader: EnVision 2104 (PerkinElmer). % of control variability=100*[(X(drug_treated)−L(baseline))/(H(vehicle_control)−L(baseline))]. […]"}, "[3]": {"system": "MIA PaCa-2 human pancreatic cancer cells", "test": "Cell Viability and Proliferation Assay, MIA PaCa-2", "assay_type": "cell-based", "details": "after 24 incubation", "procedure": "as §2"}, "[4]": {"system": "Capan-1 human pancreatic cancer cells", "test": "Cell Viability and Proliferation Assay, Capan-1", "assay_type": "cell-based", "details": "after 24 incubation", "procedure": "as §2"}, "[5]": {"system": "SK-HEP-1 human liver cancer cells", "test": "Cell Viability and Proliferation Assay, SK-HEP-1", "assay_type": "cell-based", "details": "SK-HEP1, after 24 incubation", "procedure": "as §2"}},
  "data": [
    {"smiles": "Nc1c(N2CCN(C3CCCCC3)CC2)cc(Nc2ccc(C(=O)O)cc2)c2c1C(=O)c1ccccc1C2=O", "note": "[Compound 12, 4-{[4-amino-3-(4-cyclohexylpiperazin-1-yl)-9,10-dioxo-9,10-dihydroanthracen-1-yl]amino}benzoic acid]", "values": [
      {"measurement": "IC50", "setting": "ARAF", "value": "> 10", "unit": "µM"},
      {"measurement": "IC50", "setting": "AXL", "value": "> 10", "unit": "µM"},
      {"measurement": "IC50", "setting": "BMX", "value": "> 10", "unit": "µM"},
      {"measurement": "IC50", "setting": "CDK2/cyclinE", "value": "> 10", "unit": "µM"},
      {"measurement": "IC50", "setting": "c-MET", "value": "> 10", "unit": "µM"},
      {"measurement": "IC50", "setting": "FES/FPS", "value": "> 10", "unit": "µM"},
      {"measurement": "IC50", "setting": "FGFR1", "value": "> 10", "unit": "µM"},
      {"measurement": "IC50", "setting": "FLT1", "value": "> 10", "unit": "µM"},
      {"measurement": "IC50", "setting": "FLT3 (CD)", "value": "> 10", "unit": "µM"},
      {"measurement": "IC50", "setting": "IR", "value": "> 10", "unit": "µM"},
      {"measurement": "IC50", "setting": "JAK3", "value": "> 10", "unit": "µM"},
      {"measurement": "IC50", "setting": "LCK", "value": "> 10", "unit": "µM"},
      {"measurement": "IC50", "setting": "LYN", "value": "> 10", "unit": "µM"},
      {"measurement": "IC50", "setting": "MEK2", "value": "> 10", "unit": "µM"},
      {"measurement": "IC50", "setting": "MLK1/MAP3K9", "value": "> 10", "unit": "µM"},
      {"measurement": "IC50", "setting": "P38b/MAPK11", "value": "> 10", "unit": "µM"},
      {"measurement": "IC50", "setting": "PKCalpha", "value": "> 10", "unit": "µM"},
      {"measurement": "IC50", "setting": "PKCbetaII", "value": "> 10", "unit": "µM"},
      {"measurement": "IC50", "setting": "PKCtheta", "value": "> 10", "unit": "µM"},
      {"measurement": "IC50", "setting": "PKD2/PRKD2", "value": "> 10", "unit": "µM"},
      {"measurement": "IC50", "setting": "TEC", "value": "> 10", "unit": "µM"},
      {"measurement": "IC50", "setting": "[1]", "value": "> 10", "unit": "µM"},
      {"measurement": "IC50", "setting": "[2]", "value": "2 to 5", "unit": "µM"},
      {"measurement": "IC50", "setting": "[3]", "value": "2 to 5", "unit": "µM"},
      {"measurement": "IC50", "setting": "[4]", "value": "2 to 5", "unit": "µM"},
      {"measurement": "IC50", "setting": "[5]", "value": "~5", "unit": "µM"}
    ]}
  ]
}
